19 compounds from patent US11058117B2, “Benzoxaborole compounds” (BASF SE, priority 2017, dated 2021) can be followed below.

Where two headings read alike, the source gives them in different places.

Assay [1] deals with Abutilon theophrasti. In words: greenhouse post-emergence herbicidal test. The class given is in vivo. The settings on record: scale 0 to 100. The procedure:
(§1) The culture containers used were plastic flowerpots containing loamy sand with approximately 3.0% of humus as the substrate. The seeds of the test plants were sown separately for each species.
(§2) For this purpose, the test plants were either sown directly and grown in the same containers, or they were first grown separately as seedlings and transplanted into the test containers a few days prior to treatment.
(§3) Depending on the species, the plants were kept at 10-25° C. or 20-35° C., respectively.
(§4) The test period extended over 2 to 4 weeks. During this time, the plants were tended, and their response to the individual treatments was evaluated.
(§5) Evaluation was carried out using a scale from 0 to 100. 100 means no emergence of the plants, or complete destruction of at least the aerial moieties, and 0 means no damage, or normal course of growth. A moderate herbicidal activity is given at values of at least 60, a good herbicidal activity is given at values of at least 70, and a very good herbicidal activity is given at values of at least 85.

The test system of assay [2] is Amaranthus retroflexus. In words: greenhouse post-emergence herbicidal test. In kind it is in vivo. To be noted: scale 0 to 100. The method, then:
as §1, §2, §3, §4, §5

The subject of another assay is Avena fatua. In words: greenhouse post-emergence herbicidal test. In kind it is in vivo. The settings on record: application rate 2 kg/ha, scale 0 to 100. The method, then: as §1, §2, §3, §4, §5
Another assay relates to Echinocloa crus-galli. To be noted: post-emergence, application rate 2 kg/ha; scale 0 to 100. The procedure: as §1, §2, §3, §4, §5
Another assay has as its system Setaria faberi. The settings on record: pre-emergence, application rate 2 kg/ha; scale 0 to 100.
Excerpt: as §1
(§6) The containers were irrigated gently to promote germination and growth and subsequently covered with transparent plastic hoods until the plants had rooted. This cover caused uniform germination of the test plants, unless this had been impaired by the active ingredients.
as §3, §4, §5

Another assay has as its system Setaria viridis. Kind of assay: greenhouse post-emergence herbicidal test. The class given is in vivo. The settings on record: scale 0 to 100. The procedure: as §1, §2, §3, §4, §5
Assay [3] concerns Abutilon theophrasti. To be noted: pre-emergence, application rate 2 kg/ha; scale 0 to 100.
Excerpt: as §1, §6, §3, §4, §5

For assay [4], the system named is Amaranthus retroflexus. To be noted: pre-emergence, application rate 2 kg/ha; scale 0 to 100.
Excerpt: as §1, §6, §3, §4, §5

The next assay relates to Alopecurus myosuroides. To be noted: post-emergence, scale 0 to 100. The method, then:
as §1, §2, §3, §4, §5

The test system of the next assay is Sesbania exaltata. To be noted: post-emergence, application rate 0.25 kg/ha; scale 0 to 100. The method, then: as §1, §2, §3, §4, §5
A further assay concerns Polygonum convolvulus. To be noted: post-emergence, application rate 0.25 kg/ha; scale 0 to 100. The method, then:
as §1, §2, §3, §4, §5

In the case of `COC(=O)C1Cc2c(Cl)cc3c(c2O1)B(O)OC3` (single isomer, unassigned) [Compound 7], the “herbicidal activity against Abutilon theophrasti” value with Abutilon theophrasti [1] (application rate 2 kg/ha) worked out at 100%. Moreover, the “herbicidal activity against Amaranthus retroflexus” value in the assay on Amaranthus retroflexus [2] (application rate 2 kg/ha) is given as 100%. The “herbicidal activity against Avena fatua” value in the assay with Avena fatua amounted to 100%.

As for `COC(=O)C1Cc2c(Cl)cc3c(c2O1)B(O)OC3` (single isomer, unassigned) [Compound 8], in the assay on Echinocloa crus-galli, the “herbicidal activity against Echinocloa crus-galli” value came out at 100%. Besides, in the assay on Setaria faberi, the “herbicidal activity against Setaria faberi” value is 80%. Besides, the “herbicidal activity against Setaria viridis” value with Setaria viridis (application rate 2 kg/ha) is on record as 100%. In the assay on Amaranthus retroflexus [2] (application rate 2 kg/ha), the “herbicidal activity against Amaranthus retroflexus” value was 100%.

Regarding `O=C(O)C1Oc2ccc3c(c2O1)B(O)OC3` (stereo not drawn) [Compound 2, 1-hydroxy-3H-[1,3]dioxolo[4,5-g][2,1]benzoxaborole-7-carboxylic acid], in the assay on Setaria viridis (application rate 2 kg/ha), the “herbicidal activity against Setaria viridis” value was determined as 80%. The “herbicidal activity against Abutilon theophrasti” value in the assay on Abutilon theophrasti [1] (application rate 2 kg/ha) is listed as 90%. The “herbicidal activity against Amaranthus retroflexus” value with Amaranthus retroflexus [2] (application rate 2 kg/ha) was determined as 100%.

On to `CCOC(=O)C1Oc2ccc3c(c2O1)B(O)OC3` (stereo not drawn) [Compound 3, ethyl 1-hydroxy-3H-[1,3]dioxolo[4,5-g][2,1]benzoxaborole-7-carboxylate], for which the “herbicidal activity against Setaria viridis” value in the assay with Setaria viridis (application rate 2 kg/ha) was 100%. Moreover, the “herbicidal activity against Amaranthus retroflexus” value in the assay on Amaranthus retroflexus [2] (application rate 2 kg/ha) is 100%.

Take `COC(=O)C1Oc2ccc3c(c2O1)B(O)OC3` (stereo not drawn) [Compound 4]: the “herbicidal activity against Abutilon theophrasti” value with Abutilon theophrasti [1] (application rate 2 kg/ha) came out at 100%. Moreover, the “herbicidal activity against Amaranthus retroflexus” value in the assay with Amaranthus retroflexus [2] (application rate 2 kg/ha) is 100%.

Consider `COC(=O)C1Cc2ccc3c(c2O1)B(O)OC3` (stereo not drawn) [Compound 5], for which the “herbicidal activity against Echinocloa crus-galli” value in the assay on Echinocloa crus-galli is 100%. Also, the “herbicidal activity against Setaria faberi” value with Setaria faberi came out at 85%. For the same compound, the “herbicidal activity against Abutilon theophrasti” value with Abutilon theophrasti [3] came out at 80%. The “herbicidal activity against Amaranthus retroflexus” value turned out to be 95% in the assay on Amaranthus retroflexus [4] and 100% in the assay with Amaranthus retroflexus [2] (application rate 2 kg/ha). Moreover, in the assay with Setaria viridis (application rate 2 kg/ha), the “herbicidal activity against Setaria viridis” value came out at 100%.

For the compound `O=C(O)C1Cc2ccc3c(c2O1)B(O)OC3` (stereo not drawn) [Compound 6], the “herbicidal activity against Alopecurus myosuroides” value in the assay with Alopecurus myosuroides (application rate 2 kg/ha) amounted to 98%. For the same compound, the “herbicidal activity against Amaranthus retroflexus” value is on record as 80% with Amaranthus retroflexus [4] and 100% in the assay on Amaranthus retroflexus [2] (application rate 2 kg/ha). Also, the “herbicidal activity against Abutilon theophrasti” value in the assay with Abutilon theophrasti [1] (application rate 2 kg/ha) was determined as 100%.

As for `COC(=O)C1Cc2c(c(Cl)cc3c2B(O)OC3C)O1` (stereo not drawn) [Compound 9, methyl-5-chloro-1-hydroxy-3-methyl-7,8-dihydro-3H-furo[2,3-g][2,1]benzoxaborole-7-carboxylate], the “herbicidal activity against Abutilon theophrasti” value in the assay on Abutilon theophrasti [1] (application rate 2 kg/ha) was determined as 100%. For the same compound, the “herbicidal activity against Amaranthus retroflexus” value in the assay on Amaranthus retroflexus [2] (application rate 2 kg/ha) stood at 100%. Also, the “herbicidal activity against Avena fatua” value with Avena fatua amounted to 98%.

For `COC(=O)C1Cc2c(F)cc3c(c2O1)B(O)OC3` (stereo not drawn) [Compound 12], in the assay with Sesbania exaltata, the “herbicidal activity against Sesbania exaltata” value worked out at 100%. Further, in the assay with Polygonum convolvulus, the “herbicidal activity against Polygonum convolvulus” value is 95%. Further, in the assay on Amaranthus retroflexus [2] (application rate 0.25 kg/ha), the “herbicidal activity against Amaranthus retroflexus” value was found to be 100%.

As for `O=C(O)C1Cc2c(F)cc3c(c2O1)B(O)OC3` (stereo not drawn) [Compound 13], the “herbicidal activity against Sesbania exaltata” value in the assay with Sesbania exaltata is on record as 100%. For the same compound, the “herbicidal activity against Polygonum convolvulus” value in the assay on Polygonum convolvulus is 85%. Besides, the “herbicidal activity against Amaranthus retroflexus” value in the assay on Amaranthus retroflexus [2] (application rate 0.25 kg/ha) amounted to 100%.

As for `COC(=O)C1Cc2ccc3c(c2C1)B(O)OC3` (stereo not drawn) [Compound 14], in the assay on Sesbania exaltata, the “herbicidal activity against Sesbania exaltata” value came to 100%. Moreover, the “herbicidal activity against Abutilon theophrasti” value with Abutilon theophrasti [1] (application rate 0.25 kg/ha) is reported as 100%. In addition, the “herbicidal activity against Amaranthus retroflexus” value in the assay with Amaranthus retroflexus [2] (application rate 0.25 kg/ha) is reported as 100%.

Consider `CCOC(=O)C1COc2ccc3c(c2O1)B(O)OC3` (stereo not drawn) [Compound 15], for which the “herbicidal activity against Abutilon theophrasti” value with Abutilon theophrasti [1] (application rate 2 kg/ha) was determined as 90%. For the same compound, the “herbicidal activity against Amaranthus retroflexus” value with Amaranthus retroflexus [2] (application rate 2 kg/ha) turned out to be 90%.

For the compound `CCOC(=O)C1COc2c(ccc3c2B(O)OC3)O1` (stereo not drawn) [Compound 16], the “herbicidal activity against Amaranthus retroflexus” value with Amaranthus retroflexus [2] (application rate 2 kg/ha) is 100%.

As for `COC(=O)C1Cc2c(ccc3c2B(O)OC3)O1` (stereo not drawn) [Compound 17], the “herbicidal activity against Amaranthus retroflexus” value in the assay with Amaranthus retroflexus [2] (application rate 2 kg/ha) was 100%.

Turning to `O=C(O)C1Cc2c(ccc3c2B(O)OC3)O1` (stereo not drawn) [Compound 18], the “herbicidal activity against Setaria viridis” value with Setaria viridis (application rate 1 kg/ha) came out at 90%. Besides, in the assay on Amaranthus retroflexus [2] (application rate 1 kg/ha), the “herbicidal activity against Amaranthus retroflexus” value worked out at 100%.

With `COC(=O)C1Cc2c(C(F)(F)F)cc3c(c2C1)B(O)OC3` (stereo not drawn) [Compound 19], in the assay with Setaria viridis (application rate 1 kg/ha), the “herbicidal activity against Setaria viridis” value is reported as 90%. Besides, the “herbicidal activity against Abutilon theophrasti” value with Abutilon theophrasti [1] (application rate 1 kg/ha) is 100%. Further, the “herbicidal activity against Amaranthus retroflexus” value in the assay on Amaranthus retroflexus [2] (application rate 1 kg/ha) is 100%.

With `COC(=O)C1CCc2ccc3c(c2C1)B(O)OC3` (stereo not drawn) [Compound 20], the “herbicidal activity against Setaria viridis” value in the assay on Setaria viridis (application rate 1 kg/ha) was 100%. Moreover, in the assay with Abutilon theophrasti [1] (application rate 1 kg/ha), the “herbicidal activity against Abutilon theophrasti” value is recorded as 100%. The “herbicidal activity against Amaranthus retroflexus” value with Amaranthus retroflexus [2] (application rate 1 kg/ha) is on record as 100%.

Take `O=C(O)C1CCc2ccc3c(c2C1)B(O)OC3` (stereo not drawn) [Compound 21]: the “herbicidal activity against Alopecurus myosuroides” value in the assay on Alopecurus myosuroides (application rate 1 kg/ha) stood at 80%. Moreover, the “herbicidal activity against Setaria viridis” value in the assay with Setaria viridis (application rate 1 kg/ha) was found to be 80%. Moreover, the “herbicidal activity against Amaranthus retroflexus” value in the assay on Amaranthus retroflexus [2] (application rate 1 kg/ha) stood at 100%.

Turning to `O=C(O)C1Cc2c(C(F)(F)F)cc3c(c2C1)B(O)OC3` (stereo not drawn) [Compound 22], the “herbicidal activity against Alopecurus myosuroides” value in the assay on Alopecurus myosuroides (application rate 1 kg/ha) is on record as 95%. In addition, the “herbicidal activity against Abutilon theophrasti” value in the assay on Abutilon theophrasti [1] (application rate 1 kg/ha) stood at 100%. Further, in the assay with Amaranthus retroflexus [2] (application rate 1 kg/ha), the “herbicidal activity against Amaranthus retroflexus” value was found to be 100%.
